Experimental data: patent publication US7534766B2, “Glucuronide metabolites and epimers thereof of tigecycline” (Wyeth, priority 2004, dated 2009)

Legend:
[1] = LC/MS characterization of tigecycline related compounds in human serum, urine and feces; assay type: in vivo; conditions: human, after single 50 mg IV [14C]tigecycline dose
From the text: Three HPLC conditions were used during LC/MS analysis in this study. LC/MS Condition 1 was used for the majority of sample analyses for metabolite characterization and to isolate metabolite M3a from urine. LC/MS Condition 2 was used on selected samples to increase the retention time of glucuronide metabolites and for a co-chromatography experiment to confirm the identity of metabolites M8 and M9. LC/MS Condition 3 was used to analyze the polar metabolite M3a isolated from human urine.
The UV detector was set to monitor 340-360 nm. […] The flow rate was 0.2 mL/min. […] The linear mobile phase gradient is shown below.
Separations were accomplished on a Phenomenex Luna C18(2) column (250×2.0 mm, 5 μm) with a Uniguard C18 guard column (10×2 mm) (ThermoHypersil-Keystone). The flow rate was 0.2 mL/min. […] Mobile phase A was 0.02% trifluoroacetic acid in water (v/v) and mobile phase B was 0.02% trifluoroacetic acid in acetonitrile (v/v). The linear mobile phase gradient is shown below.
A Micromass Quattro Ultima triple quadrupole mass spectrometer (Waters Corp.) was operated in the positive ionization mode. LC/MS analysis with electrospray ionization (ESI) was conducted using a Z-spray interface. ESI-MS analysis of individual fractions from selected samples was conducted by direct infusion into a nanospray interface. Settings for the mass spectrometer are listed below.
Urine and feces samples were analyzed for tigecycline metabolites by LC/MS/MS analysis for precursors of product ions characteristic of tigecycline. Additionally, potential metabolites of tigecycline were searched for in the LC/MS data based upon results from previous studies in animals and humans.
Serum extracts were analyzed for tigecycline and selected metabolites by LC/MS/MS in the selected reaction monitoring (SRM) mode (LC/SRM) to reduce interference from endogenous components. […] The following tigecycline related components were monitored.

[2] = Stability of [14C]tigecycline during extraction from control human fecal homogenates; assay type: in vitro ADME
From the text: Similar results were observed following the extraction of [^14C]tigecycline from control fecal homogenates. In these samples, [^14C]tigecycline accounted for 94% of the radioactivity prior to extraction and 68% following the extraction. There was a corresponding increase in the epimer of tigecycline, which represented 4% of the radioactivity prior to extraction and 23% following the extraction. […] Other minor products represented less than 1% of the radioactivity prior to the extraction and 4% following the extraction.
The stability of [^14C]tigecycline during the extraction process was determined in control human fecal homogenates spiked with [^14C]tigecycline at 5 μg/g of homogenate. […] Samples were extracted and analyzed by HPLC with radioactivity flow detection.

[3] = Mass balance: percent of [14C]tigecycline dose excreted in human urine and feces
Method: The concentration of tigecycline-related components in serum, urine and feces was calculated based on the total radioactivity concentrations reported elsewhere. These concentrations were converted to ng-tigecycline equivalents using the specific activity of the dose (1.00 μCi/mg). Using this value, the concentrations of the specific components were then estimated based on the distribution of radioactivity in the radiochromatograms.
An open-label, inpatient, multiple-dose tigecycline, single-dose [^14C]tigecycline metabolic disposition and mass balance study was performed in six healthy male volunteers. The clinical protocol called for twelve subjects. Of these twelve, six received the radioactive dose (subjects 1, 4, 5, 6, 7, and 8 with subject 8 later dropping out of the study.) Eligible subjects were selected based on inclusion/exclusion criteria, medical history, physical examination and additional procedures outlined in the study protocol. Each subject received a 100 mg loading dose on the morning of Day 1, followed by a 50 mg maintenance dose every 12 hours for an additional 5 doses. On the morning of study Day 4, six subjects received a single 50 mg dose of [^14C]tigecycline (50 μCi). Each tigecycline dose was administered via a 30-minute intravenous infusion.
Serum samples were collected for metabolite profiling prior to tigecycline dosing and 1, 4, 8, 24 and 48 hours following the [^14C]-labeled dose. For metabolite profiling, urine samples were collected at 0-4, 4-8, 8-24 and 24-48 hours and fecal samples were collected up to 48 hours following the [^14C]-labeled dose. Serum and urine samples, and fecal homogenates were shipped on dry ice to the Biotransformation Division of Drug Safety and Metabolism, Wyeth Research, Collegeville, Pa. The details of the sample collection and sample storage are described in the mass balance portion of the study. The 24-48 hour urine and fecal samples for subject #6 were incomplete since the subject withdrew from the study. While samples from this subject were used for metabolite profiling, the samples were not included in the mass balance calculations.

[4] = Estimated concentrations in rabbit serum by LC/MS (SRM) after intravenous tigecycline; assay type: in vivo, New Zealand White rabbit
Method: Three female New Zealand White rabbits, weighing between 3.9 and 4.3 kg at the time of dosing, were used. Animals were given food and water ad libitum. Animals were individually housed in standard cages. Rabbits were dosed at Wyeth Research, Chazy, N.Y. and samples shipped frozen to the Wyeth Research Biotransformation Department, Collegeville, Pa.
Standard curves for tigecycline, M3 and M9 were prepared in rabbit serum. Standard curves were prepared by adding the internal standard and synthetic tigecycline and metabolite standards to control plasma. Standard curve samples were prepared with tigecycline concentrations of 0, 10, 20, 50, 100, 200, 500 and 1000 ng/mL, with the linear range being […]. For 9-aminominocycline (M3), the concentrations were 0, 1, 5, 10, 20, 50, 100 and 200 ng/mL, with the linear range being 10 to 200 ng/mL. For N-acetyl-9-aminominocycline (M9), the concentrations were 1.6, 3.2, 6.4, 16, 32, 64 and 96 ng/mL, with the linear range being from 3.2 to 96 ng/mL. These samples were processed and analyzed as described above.
The column temperature was 25° C. The flow rate was 0.2 mL/min. […] Gradient 1 was used for metabolite identification (qualitative analysis).
Micromass MassLynx (version 4.0, Waters Corp.) was used for analysis of LC/MS data. The concentrations of tigecycline, 9-aminominocycline (M3) and N-acetyl-9-aminominocycline (M9) in serum were calculated based on the analyte to internal standard peak area ratios in the samples as compared to the standard curves generated in rabbit serum.

[5] = Safety and tolerability of intravenous tigecycline in healthy male volunteers; assay type: in vivo, human; conditions: IV 100-mg dose, five 50-mg doses, single 50-mg [14C]tigecycline dose
From the text: The clinical protocol called for twelve subjects.

| Matrix in which the compound was observed [1] | increase in percent of the radioactivity, control fecal homogenates ([2]; during the extraction) | percent of the radioactivity, control fecal homogenates ([2]; following the extraction) | percent of the radioactivity, control fecal homogenates ([2]; prior to extraction, 5 μg/g of homogenate) | Percentage of Dose (mean ± standard deviation) excreted ([3]; Feces (0–48 hours), n = 5) | Percentage of Dose (mean ± standard deviation) excreted ([3]; Total Urine (0-48 hours), n = 5, ND = not detected) | Percentage of Dose (mean ± standard deviation) excreted ([3]; Total urine + feces (0–48 hours), n = 5) | Percentage of Dose (mean ± standard deviation) excreted ([3]; Urine 0–4 hours, ND = not detected) | Percentage of Dose (mean ± standard deviation) excreted ([3]; Urine 4–8 hours, ND = not detected) | Percentage of Dose (mean ± standard deviation) excreted ([3]; Urine 8–24 hours, ND = not detected) | Percentage of Dose (mean ± standard deviation) excreted ([3]; Urine 24–48 hours, n = 5, ND = not detected) | concentration at 0.5 h ([4]; 0.5 hr after 4 mg/kg IV tigecycline, pooled serum, female New Zealand White rabbits) | concentration at 2 h ([4]; female, New Zealand White, 2 hr after 4 mg/kg IV tigecycline, pooled serum) | concentration at 6 h ([4]; female, New Zealand White, 6 hr after 4 mg/kg IV tigecycline, pooled serum) | concentration at 1 h ([4]; female, New Zealand White, serum, at 1 hour, 4 mg/kg IV tigecycline) | SMILES | adverse event frequency: dyspepsia [5] | adverse event frequency: injection site inflammation [5] | adverse event frequency: nausea [5] | adverse event frequency: vomiting [5] | safety and tolerability [5] |
| --- | --- | --- | --- | --- | --- | --- | --- | --- | --- | --- | --- | --- | --- | --- | --- | --- | --- | --- | --- | --- |
| S, U, F | 4% | 5% | 1% | – | – | – | – | – | – | – | – | – | – | – | CC(C)(C)NCC(=O)O [Metabolite M3a, t-butylaminoacetic acid] | – | – | – | – | – |
| S, U, F | – | – | – | 9.9 ± 7.9% | 14.8 ± 2.9% | 24.7 ± 8.7% | 7.1 ± 0.9% | 2.4 ± 1.1% | 3.3 ± 1.1% | 1.7 ± 0.7% | 2020 ng/mL | 1040 ng/mL | 287 ng/mL | 2020 ng/mL | CN(C)c1cc(NC(=O)CNC(C)(C)C)c(O)c2c1C[C@H]1C[C@H]3[C@H](N(C)C)C(O)=C(C(N)=O)C(=O)[C@@]3(O)C(O)=C1C2=O [Tigecycline] | 17% | 17% | 75% | 50% | generally safe and well tolerated |
